How the values were obtained:
[1] = test system: HepG2 human liver cancer cells; experiment: MTT cell proliferation assay; format: cell-based
Experimental: Using the MTT cell proliferation assay described in Example 21, and substituting HepG2 human liver cancer cells in place of SW837 cells, the effects of EGCG (20 μg/mL), an illustrative Synergistic Polyphenol Compound, on the production of IGF-1, IGF-2 and IGFBP-3 was determined. […] Accordingly, the Synergistic Polyphenol Compounds are useful for treating or preventing liver cancer.

COX-2 protein = experiment: Western blot analysis in SW837 cells; format: cell-based, human; conditions: for cellular level of the COX-2 protein: 20 μg/mL
Source text: (§1) Total cellular protein was extracted and equivalent amounts of protein can be determined by western blot analysis using the methods described in Suzui, et al., Cancer Res., 62:3997-4006 (2002). The primary antibodies for several proteins are described in Masuda et al., Clin Cancer Res., 7:4220-4229 (2001); Masuda et al., Clin Cancer Res., 9:3486-3491 (2003); and Shimizu et al., Clin Cancer Res., 11:2735-2746 (2005). The primary antibodies for HER3 (2F12) and COX-2 (PG27) were purchased from Upstate Cell Signaling Solutions (Charlottesville, Va.) and Oxford Biochemical Research (Oxford, Mich.), respectively. To examine the levels of expression of the phosphorylated (i.e. activated) form of the HER3 protein (p-HER3), cellular lysates (1 mg/mL) were incubated with 4 μg anti-HER3 antibody overnight at 4° C. with slow agitation, and immune complexes were then precipitated by adding protein A/G agarose (sc-2003, Santa Cruz Biotechnology, Santa Cruz, Calif.). After incubating for 2 hours at 4° C., the beads were washed with lysis buffer, and bound proteins were eluted into the sample buffer and subjected to western blot analysis, as described above. The p-HER3 protein was then detected by using an anti-phospho-tyrosine antibody (PY-20-HRP, BD Transduction Laboratories, San Diego, Calif.). An antibody to actin was used as a loading control. Each membrane was developed using an ECL-enhanced chemiluminescence system (Amersham Biosciences, Piscataway, N.J.).

Bcl-xL = experiment: Western blot analysis in SW837 cells; format: cell-based, human; conditions: 1.0 μg/mL, 96 hours
Source text: as §1

p-ERK = experiment: Western blot analysis in SW837 cells; format: cell-based, human; conditions: 20 μg/mL, at 12 hours
Source text: as §1

p-Akt = experiment: Western blot analysis in SW837 cells; format: cell-based, human; conditions: 20 μg/mL, at 6 hours
Source text: as §1

p-EGFR = experiment: Western blot analysis in SW837 cells; format: cell-based, human
Source text: as §1

p-HER2 = experiment: Western blot analysis in SW837 cells; format: cell-based, human
Source text: as §1

COX-2 promoter = experiment: Transient transfection luciferase reporter assay in SW837 cells; format: cell-based, human; conditions: 10 and 20 μg/mL, 24 hours
Experimental: (§2) Reporter assays were performed performed using the methods described in Suzui, et al., Cancer Res., 62:3997-4006 (2002). The COX-2-luciferase reporter plasmid phPES2(−327/+59) was provided by the National Cardiovascular Research Institute (Osaka, Japan). The pAP-1 luciferase reporter plasmid was provided by the National Cancer Institute (Bethesda, Md.). The NF-[…]B promoter luciferase reporter plasmid […]NF-[…]B-Luc is described in Masuda et al., Clin. Cancer Res. 7:4220-4229 (2001). One μg of DNA of the indicated luciferase reporter plasmid was transfected into SW837 human colon cancer cells (3.0×10^5 cells/35-mm diameter dish) using Lipofectin reagent (Invitrogen) in opti-MEM I medium (Invitrogen). After 24 hours the cells were treated with EGCG (0, 10, or 20 μg/mL) for 24 hours, and extracts were then prepared. Luciferase activities were determined using a luciferase assay system ([…]., Madison, Wis.). In all of these reporter assays the cells were also cotransfected with a CMV-[…]-galactosidase ([…]-gal) reporter. Luciferase activities were normalized with respect to the […]-gal activities, to correct for differences in transfection efficiency, using the methods described in Suzui, et al., Cancer Res., 62:3997-4006 (2002).

NF-κB promoter = experiment: as above; format: cell-based, human; conditions: 10 and 20 μg/mL, 24 hours
Experimental: as §2

AP-1 promoter = experiment: as above; format: cell-based, human; conditions: 10 and 20 μg/mL, 24 hours, inhibition most apparent for this promoter
Experimental: as §2

IGFBP-3 protein = experiment: Western blot analysis for IGF in SW837 cells; format: cell-based, human
Source text: (§3) Total cellular protein was extracted and equivalent amounts of protein were examined by western blot analysis, as described above in Example 6. Cell lysates were separated by SDS-PAGE using 7.5 to 15% polyacrylamide gels and transferred onto Immobilon-P transfer membranes (Millipore Co., Bedford, Mass.). The primary antibodies for IGF-1R[…](#3022) and p-IGF-1R (#3021) were purchased from Cell Signaling Technology (Beverly, Mass.). The primary antibodies for IGF-1R[…](sc-713) and IGFBP-3 (sc-6003) were purchased from Santa Cruz Biotechnology (Santa Cruz, Calif.). The primary antibodies for IGF-1 (clone Sm1.2) and actin (A2066) were purchased from Upstate Cell Signaling Solutions (Charlottesville, Va.) and Sigma Chemical Co. (St Louis, Mo.), respectively. An antibody to actin was used as a loading control. Anti-mouse IgG (Amersham Pharmacia Biosciences, Piscataway, N.J.), anti-rabbit IgG (Amersham Pharmacia Biosciences), or anti-goat IgG (Santa Cruz Biotechnology) antibodies were used as the secondary antibodies. Each membrane was developed using an ECL-enhanced chemiluminescence system (Amersham Biosciences).

p-IGF-1R = experiment: Western blot analysis for IGF in SW837 cells; format: cell-based, human; conditions: 20 μg/mL, within 6 hours
Source text: as §3

IGF-1 protein = experiment: Western blot analysis for IGF in SW837 cells; format: cell-based, human
Source text: as §3

With (−)-epigallocatechin gallate the “IC50, growth of HepG2 cells” value [1] was 21 µg/mL, the “levels of the COX-2 protein” value (COX-2 protein; 1.0 μg/mL, 96 hours) was “decrease” and the “cellular level of the COX-2 protein” value (COX-2 protein; after 12 to 24 hours) was “marked decrease”. For the same substance, the “cellular level of the COX-2 protein” value (COX-2 protein; at 48 hours) was “almost undetectable”, the “levels of the Bcl-xL protein” value (Bcl-xL) was “decrease” and the “levels of the p-ERK protein” value (p-ERK) was “marked decreases”. For the same substance, the “levels of the p-Akt protein” value (p-Akt) was “marked decreases”, the “levels of the p-EGFR protein” value (p-EGFR; 1.0 μg/mL, 96 hours) was “decrease” and the “levels of the p-EGFR protein” value (p-EGFR; 20 μg/mL, within 6 hours) was “marked decrease”. The “levels of the p-HER2 protein” value (p-HER2; 1.0 μg/mL, 96 hours) was “decrease”, the “levels of the p-HER2 protein” value (p-HER2; 20 μg/mL, within 6 hours) was “marked decrease” and the “COX-2 luciferase reporter activity” value (COX-2 promoter) was “inhibition”. For the same substance, the “NF-κB luciferase reporter activity” value (NF-κB promoter) was “inhibition”, the “AP-1 luciferase reporter activity” value (AP-1 promoter) was “inhibition” and the “level of the IGFBP-3 protein” value (IGFBP-3 protein; 1.0 μg/mL, 96 hours) was “increase”. For the same substance, the “level of the IGFBP-3 protein” value (IGFBP-3 protein; 20 μg/mL, at 6 hours, persisted for at least 48 hours) was “marked increase”, the “levels of the p-IGF-1R protein” value (p-IGF-1R) was “marked decrease” and the “levels of the IGF-1 protein” value (IGF-1 protein; 1.0 μg/mL, 96 hours) was “decrease”. The “levels of the IGF-1 protein” value (IGF-1 protein; 20 μg/mL, at 12 hours) was “moderate decrease” and the “levels of the IGF-1 protein” value (IGF-1 protein; 20 μg/mL, at 24 hours) was “marked decrease”.
